# According to PMC6838142, “Nano-Antagonist Alleviates Inflammation and Allows for MRI of Atherosclerosis” (Nanotheranostics, 2019):
# Assays:
# [1] = system: RAW cells; assay: Fluorescence microscopy of binding and uptake in RAW cells; format: cell-based, mouse
# From the text: Figure 1 Screening identifies CCTV as an anti-inflammatory nanoparticle with high affinity for CC chemokine receptor 2. A) A screening of a small library of nanoparticles in lipopolysaccharide (LPS)-stimulated macrophage reporter cells (RAW-Blue) identified CCTV, which downregulates nuclear factor-kappa B (NF-κB) activity. Each point on the plot represents a relative activity of NF-κB (X-coordinate) and corresponding nanoparticle content per mg of cell protein (Y-coordinate) calculated from nanoparticle fluorescence. […] Dexamethasone (Dex) is an NF-κB inhibitor and was used as a positive control. Vehicle-treated and unstained (US) cells served as a negative control. B) CCTV binding to the cell surface was validated in RAW cells using fluorescence microscopy. The cells were stained at 4 °C or room temperature for 30 min with CCTV or vehicle nanoparticles (sudo-colored green). Lysosomes were visualized after staining with LAMP1 antibody (red). Nuclei were stained using Hoechst 33342 (blue). C) The uptake of CCTV was inhibited in the presence of 5 µM cytochalasin D (cyto D). DMSO served as vehicle control. Calcein AM was used for whole cell staining. D) CCTV binding to a receptor on the cell surface was studied by flow cytometry in the presence and absence of the excess (1 mM) of the free peptide. E) The Basic Local Alignment Search Tool (BLAST) analysis determined that CCTV peptide sequence repeats in mouse and human CC chemokine receptor family. Only the first 50 amino acids are shown. F) Chemical structure of CCTV and its mirror analog VTCC and their possible conjugation strategies that include N- (N-term.) and C-terminus (C-term.) as well as sulfhydryl attachment. […]
# For a targeted nanotherapy to be effective, the nanoparticles must have affinity to a specific cell type, usually determined by cell surface binding. […] Thus, we used the mouse macrophage reporter cell line RAW-Blue that allowed for monitoring activity of Nuclear Factor-kappa B (NF-kB) and also enabled In vitro quantitation of nanoparticle binding to the cell surface. […]
# [2] = system: bone marrow derived macrophages (BMDMs); assay: Immunoblot of IL-1β and HO-1 in LPS-stimulated BMDMs; format: cell-based, mouse
# Description: Immunoblotting was performed as previously described with the following modifications. Briefly, cell lysates were obtained in SDS lysis buffer consisting of 2% SDS, 50 mM Tris-HCl (pH 6.8), 100 mM DTT, 5% Ficoll 400, 0.0001% bromophenol blue and a cocktail of protease inhibitors. Lysates were sonicated on ice before heating at 97 °C for 7 min to completely denature the protein. Protein concentration was determined using IR spectroscopy (which is insensitive to high SDS and DTT concentrations) with a Millipore DirectDetect spectrometer. Lysates were equally loaded at 10-15 µg per lane on BioRad TGX Criterion gels (4-15%) and resolved at 300 V in Tris-Glycine running buffer. Proteins were transferred on nitrocellulose membranes using the BioRad TransBlot turbo according to the manufacturer's instructions. Membranes were blocked in fish serum (Aqua Block) or 5% nonfat dry milk in TBS-T (0.05% Tween 20) and probed overnight at 4 °C with primary antibodies as indicated in Supplementary Table S1. The membranes were washed in TBS-T and incubated with secondary antibodies for 1 h at room temperature. After washing, semi-quantitative visualization of the proteins of interest was enabled using an enhanced chemiluminescence reagent as previously described and the Azure C400 western blot imaging system.
# N-acetylcysteine (NAC) served as an antioxidant control. β-Actin was used as a loading control. B) Gene expression analysis in RAW cells treated with 1 µM of vehicle, CCTV and VTCC (peptide nanoparticle control) for 24 h. mRNA expression of mannose receptor (Mrc1), nitric oxide synthase 2 (Nos2), tumor necrosis factor (Tnf), interleukin-1beta (Il1b), and interleukin-6 (Il6) were analyzed. C) Cytokines in cell culture supernatants were analyzed as indicated. […] Metrics of chemotactic behaviour i.e. velocity, distance travelled, and chemotactic index were quantified as presented in bar graphs. […] P values are calculated by t-test and error bars are standard errors of three independent experiments.
substance,measurement,setting,value
CCTV,uptake in presence of cytochalasin D,"[1]; 5 µM cytochalasin D, DMSO vehicle control",inhibited
same,cell-surface binding at 4oC,"[1]; RAW cells, 4 °C, 30 min, vs vehicle nanoparticles",rapidly bound to the cell surface
same,uptake at room temperature,"[1]; RAW cells, room temperature, LAMP1 co-staining",mediated by endocytosis
same,HO-1 levels at high concentration,[2]; 50 µM,the effect was reversed
same,HO-1 levels (immunoblot),"[2]; LPS 100 ng/mL, 16 h",reduced
same,IL-1β production (immunoblot),"[2]; LPS 100 ng/mL, 16 h",dose-dependent reduction of IL-1β
